Experimental data published in article PMC6892409, “Phenotypic proteomic profiling identifies a landscape of targets for circadian clock–modulating compounds” (Life Science Alliance, 2019).
Read-outs that look alike come from different tables or passages of the source.

How the values were obtained:
[1] = tested on: Per2-dLuc U2OS cells; test: Circadian luminescence period assay, Per2-dLuc U2OS cells; assay type: cell-based, human; conditions: 7 μM, mean ± SEM, control 24.2 ± […]
Protocol: Per2-dLuc U2OS osteosarcoma and Bmal1-dLuc U2OS osteosarcoma reporter cell lines were gifts from Dr Andrew Liu, University of Memphis, USA ([Liu et al, 2008]). […] The cells were cultured at 37°C, 5% CO2 in a standard humidified incubator.

[2] = molecular target: T1, CAMK2d (Homo sapiens, UniProt Q13557); test: Radiometric HotSpot kinase assay; assay type: biochemical; conditions: 100 μM, n = 3; remaining activity vs DMSO; read-out: Enzyme activity (%) CAMK2d
T1 construct: purchased Reaction Biology
Protocol: (§1) In brief, specific kinase/substrate pairs were mixed in a buffer containing 20 mM Hepes (pH 7.5), 10 mM MgCl2, 1 mM EGTA, 0.02% Brij35, 0.02 mg/ml BSA, 0.1 mM Na3VO4, 2 mM DTT, and 1% DMSO. […] After a 20-min incubation, ATP (cat. no. A7699; Sigma-Aldrich) and [γ-^33P] ATP (cat. no. NEG602H001MC; PerkinElmer) were added at a final total concentration of […].

[3] = molecular target: T2, CDK2 (Homo sapiens, UniProt P24941); test: Radiometric HotSpot kinase assay; assay type: biochemical; conditions: n = 3, remaining activity vs DMSO, read-out: Enzyme activity (%) CDK2
T2 construct: purchased Reaction Biology
Protocol: as §1

[4] = molecular target: T3, CDK7 (Homo sapiens, UniProt P50613); test: Radiometric HotSpot kinase assay; assay type: biochemical; conditions: 100 μM, n = 3; remaining activity vs DMSO; read-out: Enzyme activity (%) CDK7
T3 construct: purchased Reaction Biology
Protocol: as §1

[5] = molecular target: T4, CK1d (Homo sapiens, UniProt P48730); test: Radiometric HotSpot kinase assay; assay type: biochemical; conditions: n = 3, remaining activity vs DMSO, read-out: Enzyme activity (%) CK1d
T4 construct: purchased Reaction Biology
Protocol: as §1

[6] = molecular target: T5, CK2a (Homo sapiens, UniProt P68400); test: Radiometric HotSpot kinase assay; assay type: biochemical; conditions: 100 μM, n = 3; remaining activity vs DMSO; read-out: Enzyme activity (%) CK2a
T5 construct: purchased Reaction Biology
Protocol: as §1

[7] = molecular target: T6, ERK1/MAPK3 (Homo sapiens, UniProt P27361); test: Radiometric HotSpot kinase assay; assay type: biochemical; conditions: 100 μM, n = 3; remaining activity vs DMSO; read-out: Enzyme activity (%) ERK1/MAPK3
T6 construct: purchased Reaction Biology
Protocol: as §1

[8] = molecular target: T7, ERK2/MAPK1 (Homo sapiens, UniProt P28482); test: Radiometric HotSpot kinase assay; assay type: biochemical; conditions: 100 μM, n = 3; remaining activity vs DMSO; read-out: Enzyme activity (%) ERK2/MAPK1
T7 construct: purchased Reaction Biology
Protocol: as §1

[9] = molecular target: T8, MST4/STK26 (Homo sapiens, UniProt Q9P289); test: Radiometric HotSpot kinase assay; assay type: biochemical; conditions: 100 μM, n = 3; remaining activity vs DMSO; read-out: Enzyme activity (%) MST4/STK26
T8 construct: purchased Reaction Biology
Protocol: as §1

[10] = molecular target: T9, TNIK (Homo sapiens, UniProt Q9UKE5); test: Radiometric HotSpot kinase assay; assay type: biochemical
T9 construct: purchased Reaction Biology
T9 sequence (Q9UKE5 whole entry): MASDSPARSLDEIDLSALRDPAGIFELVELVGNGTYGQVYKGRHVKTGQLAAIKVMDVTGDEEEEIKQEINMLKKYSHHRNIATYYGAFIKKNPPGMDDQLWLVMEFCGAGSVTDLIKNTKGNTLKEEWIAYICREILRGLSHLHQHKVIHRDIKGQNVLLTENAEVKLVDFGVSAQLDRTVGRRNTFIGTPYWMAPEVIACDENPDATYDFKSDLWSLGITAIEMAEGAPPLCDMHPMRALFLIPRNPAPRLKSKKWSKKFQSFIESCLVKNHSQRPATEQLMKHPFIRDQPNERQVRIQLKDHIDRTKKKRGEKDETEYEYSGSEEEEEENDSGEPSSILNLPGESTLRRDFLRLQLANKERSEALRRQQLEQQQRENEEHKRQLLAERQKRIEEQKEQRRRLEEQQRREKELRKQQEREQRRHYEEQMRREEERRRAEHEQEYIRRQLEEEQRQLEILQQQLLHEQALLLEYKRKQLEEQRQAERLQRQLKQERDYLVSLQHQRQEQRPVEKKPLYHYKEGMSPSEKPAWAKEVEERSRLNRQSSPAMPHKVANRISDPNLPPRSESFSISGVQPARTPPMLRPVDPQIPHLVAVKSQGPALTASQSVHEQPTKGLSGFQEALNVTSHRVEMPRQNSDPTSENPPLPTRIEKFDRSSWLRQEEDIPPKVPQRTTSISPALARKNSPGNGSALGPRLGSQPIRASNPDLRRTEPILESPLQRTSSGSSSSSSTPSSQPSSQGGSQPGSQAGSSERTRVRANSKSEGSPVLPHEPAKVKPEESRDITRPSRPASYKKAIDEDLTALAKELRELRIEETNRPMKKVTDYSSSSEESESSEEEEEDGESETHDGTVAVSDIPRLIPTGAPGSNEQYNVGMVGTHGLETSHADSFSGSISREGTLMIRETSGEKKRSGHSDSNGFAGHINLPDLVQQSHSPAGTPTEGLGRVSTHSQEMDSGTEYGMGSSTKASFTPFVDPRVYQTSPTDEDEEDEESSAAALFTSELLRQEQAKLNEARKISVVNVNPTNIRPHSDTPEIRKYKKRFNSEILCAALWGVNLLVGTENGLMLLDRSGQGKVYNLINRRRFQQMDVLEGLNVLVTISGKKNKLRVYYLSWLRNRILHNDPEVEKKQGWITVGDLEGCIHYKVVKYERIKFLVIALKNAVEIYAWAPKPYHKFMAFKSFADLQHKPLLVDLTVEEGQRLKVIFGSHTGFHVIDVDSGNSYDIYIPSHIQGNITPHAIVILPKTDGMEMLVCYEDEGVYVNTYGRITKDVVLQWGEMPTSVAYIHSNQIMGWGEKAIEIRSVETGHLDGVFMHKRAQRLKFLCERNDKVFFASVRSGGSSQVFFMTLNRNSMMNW
Protocol: as §1

[11] = molecular target: RPL37 (Homo sapiens, UniProt P61927); test: TPP in intact U2OS cells; assay type: binding; conditions: vs vehicle
[12] = molecular target: PSMG4 (Homo sapiens, UniProt Q5JS54); test: TPP in intact U2OS cells; assay type: binding; conditions: vs vehicle
Sequence of PSMG4 (Q5JS54 whole entry): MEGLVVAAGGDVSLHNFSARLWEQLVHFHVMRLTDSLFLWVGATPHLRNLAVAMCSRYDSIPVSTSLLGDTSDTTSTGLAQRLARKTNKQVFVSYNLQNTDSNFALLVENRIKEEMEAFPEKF

[13] = molecular target: Rab GTPase-binding effector protein 1 (RABEP1) (Homo sapiens, UniProt Q15276); test: TPP in intact U2OS cells; conditions: vs vehicle
[14] = molecular target: F-box protein 21 (FBX21) (Homo sapiens, UniProt O94952); test: TPP in intact U2OS cells; assay type: binding; conditions: vs vehicle
Sequence of F-box protein 21 (FBX21) (O94952 whole entry): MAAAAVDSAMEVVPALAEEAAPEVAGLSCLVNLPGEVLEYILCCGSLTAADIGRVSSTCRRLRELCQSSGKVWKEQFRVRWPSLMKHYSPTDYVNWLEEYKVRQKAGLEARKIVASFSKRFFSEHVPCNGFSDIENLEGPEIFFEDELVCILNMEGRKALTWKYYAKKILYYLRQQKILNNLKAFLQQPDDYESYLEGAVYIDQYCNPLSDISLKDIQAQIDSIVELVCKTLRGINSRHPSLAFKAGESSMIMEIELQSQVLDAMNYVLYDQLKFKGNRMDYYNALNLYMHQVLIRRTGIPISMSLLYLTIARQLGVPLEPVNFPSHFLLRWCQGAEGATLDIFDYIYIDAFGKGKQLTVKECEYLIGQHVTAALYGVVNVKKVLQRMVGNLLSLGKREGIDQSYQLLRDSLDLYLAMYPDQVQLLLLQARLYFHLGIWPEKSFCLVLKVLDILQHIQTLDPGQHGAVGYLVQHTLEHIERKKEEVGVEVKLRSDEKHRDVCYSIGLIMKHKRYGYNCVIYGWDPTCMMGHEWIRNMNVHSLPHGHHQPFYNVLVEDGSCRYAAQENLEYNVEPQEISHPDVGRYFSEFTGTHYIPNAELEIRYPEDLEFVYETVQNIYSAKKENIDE

[15] = molecular target: Cleavage stimulation factor subunit 2 tau variant (CSTF2T) (Homo sapiens, UniProt Q9H0L4); test: TPP in intact U2OS cells; assay type: binding; conditions: vs vehicle
[16] = molecular target: DYNC1I2 (Homo sapiens, UniProt Q13409); test: TPP in intact U2OS cells; assay type: binding; conditions: vs vehicle
[17] = molecular target: TNS1 (Homo sapiens, UniProt Q9HBL0); test: TPP in intact U2OS cells; assay type: binding; conditions: vs vehicle
Sequence of TNS1 (Q9HBL0 whole entry): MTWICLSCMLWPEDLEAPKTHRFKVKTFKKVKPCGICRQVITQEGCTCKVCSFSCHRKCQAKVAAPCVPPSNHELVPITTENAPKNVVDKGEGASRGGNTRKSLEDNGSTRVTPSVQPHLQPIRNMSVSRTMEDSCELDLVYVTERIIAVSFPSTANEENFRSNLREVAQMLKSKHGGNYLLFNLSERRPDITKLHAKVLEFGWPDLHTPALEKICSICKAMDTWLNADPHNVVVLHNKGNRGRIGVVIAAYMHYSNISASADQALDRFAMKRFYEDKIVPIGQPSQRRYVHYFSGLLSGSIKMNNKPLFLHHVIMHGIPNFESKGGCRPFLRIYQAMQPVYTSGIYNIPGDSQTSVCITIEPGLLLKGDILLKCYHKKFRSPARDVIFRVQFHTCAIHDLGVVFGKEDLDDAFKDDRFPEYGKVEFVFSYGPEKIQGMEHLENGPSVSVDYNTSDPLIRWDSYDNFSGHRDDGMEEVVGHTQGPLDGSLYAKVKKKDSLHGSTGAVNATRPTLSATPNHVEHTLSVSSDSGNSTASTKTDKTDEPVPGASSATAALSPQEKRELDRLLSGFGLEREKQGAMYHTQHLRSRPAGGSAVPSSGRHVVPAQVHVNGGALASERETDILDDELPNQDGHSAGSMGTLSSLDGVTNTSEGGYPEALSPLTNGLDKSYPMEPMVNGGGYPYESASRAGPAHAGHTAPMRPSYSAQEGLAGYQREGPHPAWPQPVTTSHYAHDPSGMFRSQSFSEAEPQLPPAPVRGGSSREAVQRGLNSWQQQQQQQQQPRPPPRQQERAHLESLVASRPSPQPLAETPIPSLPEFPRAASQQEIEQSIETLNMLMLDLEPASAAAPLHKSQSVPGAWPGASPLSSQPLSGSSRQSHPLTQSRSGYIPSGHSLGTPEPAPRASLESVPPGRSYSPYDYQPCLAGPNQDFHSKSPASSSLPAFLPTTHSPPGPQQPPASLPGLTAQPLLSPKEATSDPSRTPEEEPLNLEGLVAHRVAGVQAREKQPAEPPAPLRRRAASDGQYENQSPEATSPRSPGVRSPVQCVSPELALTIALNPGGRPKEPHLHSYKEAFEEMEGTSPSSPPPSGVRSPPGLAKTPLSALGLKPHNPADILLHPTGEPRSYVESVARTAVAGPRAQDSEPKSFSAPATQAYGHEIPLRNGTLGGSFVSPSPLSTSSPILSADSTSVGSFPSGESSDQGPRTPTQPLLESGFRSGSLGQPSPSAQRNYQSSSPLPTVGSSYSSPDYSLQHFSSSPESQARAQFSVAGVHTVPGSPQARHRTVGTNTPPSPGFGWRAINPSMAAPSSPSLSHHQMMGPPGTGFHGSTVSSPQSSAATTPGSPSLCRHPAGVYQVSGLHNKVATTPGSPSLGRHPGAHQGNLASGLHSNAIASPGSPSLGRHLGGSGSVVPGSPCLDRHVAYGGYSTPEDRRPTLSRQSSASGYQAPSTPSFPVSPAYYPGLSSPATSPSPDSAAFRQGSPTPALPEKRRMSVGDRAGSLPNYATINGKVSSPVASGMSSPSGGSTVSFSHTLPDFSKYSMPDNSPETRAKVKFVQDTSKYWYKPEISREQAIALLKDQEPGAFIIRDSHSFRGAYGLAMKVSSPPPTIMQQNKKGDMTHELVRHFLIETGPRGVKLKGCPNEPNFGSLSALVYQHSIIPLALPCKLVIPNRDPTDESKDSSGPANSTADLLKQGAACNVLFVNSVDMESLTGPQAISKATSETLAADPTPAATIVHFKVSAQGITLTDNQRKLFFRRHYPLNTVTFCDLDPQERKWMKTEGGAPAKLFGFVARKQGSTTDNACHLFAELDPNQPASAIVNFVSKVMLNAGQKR

[18] = molecular target: NFU1 (Homo sapiens, UniProt Q9UMS0); test: TPP in intact U2OS cells; assay type: binding; conditions: vs vehicle
Sequence of NFU1 (Q9UMS0 10-254): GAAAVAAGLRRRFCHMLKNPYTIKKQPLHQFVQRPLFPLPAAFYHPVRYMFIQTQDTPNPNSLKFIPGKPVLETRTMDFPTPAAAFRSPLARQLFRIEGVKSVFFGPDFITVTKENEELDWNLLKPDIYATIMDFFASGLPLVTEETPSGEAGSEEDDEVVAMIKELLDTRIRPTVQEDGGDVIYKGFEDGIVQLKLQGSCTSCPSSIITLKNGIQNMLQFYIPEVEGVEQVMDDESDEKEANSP

[19] = molecular target: SARS2 (Homo sapiens, UniProt Q9NP81); test: TPP in intact U2OS cells; assay type: binding
Sequence of SARS2 (Q9NP81 35-518): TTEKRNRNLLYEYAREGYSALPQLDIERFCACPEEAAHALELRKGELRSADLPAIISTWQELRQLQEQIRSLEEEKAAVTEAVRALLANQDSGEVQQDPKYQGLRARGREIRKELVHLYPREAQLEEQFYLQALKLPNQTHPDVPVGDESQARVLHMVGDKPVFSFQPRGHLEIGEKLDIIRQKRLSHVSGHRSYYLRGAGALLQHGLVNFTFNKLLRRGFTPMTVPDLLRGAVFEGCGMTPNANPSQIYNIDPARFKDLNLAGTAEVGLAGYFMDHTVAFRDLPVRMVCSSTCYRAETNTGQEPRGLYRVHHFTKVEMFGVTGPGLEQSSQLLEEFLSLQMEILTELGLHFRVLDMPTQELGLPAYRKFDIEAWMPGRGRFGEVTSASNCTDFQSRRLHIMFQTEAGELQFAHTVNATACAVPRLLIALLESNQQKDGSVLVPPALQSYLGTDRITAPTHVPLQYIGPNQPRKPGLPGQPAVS

[20] = molecular target: CYCS (Homo sapiens, UniProt P99999); test: TPP in intact U2OS cells; assay type: binding; conditions: vs vehicle
Sequence of CYCS (P99999 whole entry): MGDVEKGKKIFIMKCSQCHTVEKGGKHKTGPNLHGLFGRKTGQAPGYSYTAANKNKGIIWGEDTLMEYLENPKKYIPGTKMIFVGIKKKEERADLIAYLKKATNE

[21] = tested on: Synechococcus elongatus; test: Luminescence rhythm period assay in cyanobacteria; conditions: 3, 8, 16 and 32 μM
Protocol: The D730nm was maintained between 0.27 and 0.45 by dilution with fresh medium.
Circadian period–altering compounds (dissolved in DMSO, final 0.5% DMSO) were then added in the air medium to reach the different desired concentrations. […] Images were generated from integrated photon counts over 25 min every 30 min using Metamorph software (Molecular Devices). […] Exported images were composed into image stacks and were quantified in a time series using a custom script in NIH ImageJ software, applying the “Multi Measure” plugin.

SMILES: Oc1c2ccccc2c2c3c(cccc13)N=N2 [SP600125]
- Circadian period length [1]: 28.6 ± 0.1 h
- remaining activity at 100 µM [2]: 14.7%
- remaining activity at 100 µM [3]: 5.3%
- remaining activity at 100 µM [4]: 13.2%
- remaining activity at 100 µM [5]: 0.9%
- remaining activity at 100 µM [6]: 5.7%
- remaining activity at 100 µM [7]: 76.7%
- remaining activity at 100 µM [8]: 70.7%
- remaining activity at 100 µM [9]: 14.4%
- remaining activity at 100 µM ([10]; 100 μM, n = 3, remaining activity vs DMSO, read-out: Enzyme activity (%) TNIK): 1.1%
- IC50 ([10]; 10-dose, threefold serial dilution starting at 100 μM): < 500 nM
- ΔTm at 10 µM ([11]; Rep1, read-out: + Tm shift RPL37, Rep1): 2.9 °C
- ΔTm at 10 µM ([11]; Rep2, read-out: + Tm shift RPL37, Rep2): 2.1 °C
- ΔTm at 10 µM ([12]; Rep1, read-out: + Tm shift PSMG4, Rep1): 3.4 °C
- ΔTm at 10 µM ([12]; Rep2, read-out: + Tm shift PSMG4, Rep2): 3.5 °C
- ΔTm at 10 µM ([13]; Rep1, read-out: + Tm shift RABEP1, Rep1): 3.5 °C
- ΔTm at 10 µM ([13]; Rep2, read-out: + Tm shift RABEP1, Rep2): 4.4 °C
- ΔTm at 10 µM ([14]; Rep1, read-out: + Tm shift FBX21, Rep1): 3.2 °C
- ΔTm at 10 µM ([14]; Rep2, read-out: + Tm shift FBX21, Rep2): 2.3 °C
- ΔTm at 10 µM ([15]; Rep1, read-out: + Tm shift CSTF2T, Rep1): 1.3 °C
- ΔTm at 10 µM ([15]; Rep2, read-out: + Tm shift CSTF2T, Rep2): 1.8 °C
- ΔTm at 10 µM ([16]; Rep1, read-out: + Tm shift DYNC1I2, Rep1): 2.5 °C
- ΔTm at 10 µM ([16]; Rep2, read-out: + Tm shift DYNC1I2, Rep2): 0.8 °C
- ΔTm at 10 µM ([17]; Rep1, read-out: + Tm shift TNS1, Rep1): 1.1 °C
- ΔTm at 10 µM ([17]; Rep2, read-out: + Tm shift TNS1, Rep2): 1.6 °C
- ΔTm at 10 µM ([18]; Rep1, read-out: + Tm shift NFU1, Rep1): 1.3 °C
- ΔTm at 10 µM ([18]; Rep2, read-out: + Tm shift NFU1, Rep2): 1.2 °C
- ΔTm at 10 µM ([19]; read-out: + Tm shift SARS2, Rep1): 1.2 °C
- ΔTm at 10 µM ([19]; read-out: + Tm shift SARS2, Rep2): 1.3 °C
- ΔTm at 10 µM ([20]; Rep1, read-out: + Tm shift CYCS, Rep1): 1 °C
- ΔTm at 10 µM ([20]; Rep2, read-out: + Tm shift CYCS, Rep2): 1 °C
- Effect on period length in cyanobacteria [21]: do not affect period length
